According to patent publication US20250129031A1, “1,2,3-TRIAZOLE CARBONYL SULFONYLAMIDE COMPOUNDS AND USE THEREOF” (PI INDUSTRIES LTD., priority 2022, published 2025):

Test system: Meloidogyne incognita
Experiment: Meloidogyne incognita test: gall rating on cucumber plants in pots after soil application
Assay type: in vivo
Parameters: key: 0: no galls; 1: very few small galls; 2: numerous small galls; 3: numerous small galls of which some are grown together; 4: numerous small and some big galls; 25% of roots severely galled; 6: 50% of roots severely galled; 75% of roots severely galled; 8: no healthy roots but plant is still green; 9: roots rotting and plant dying; 10: plant and roots dead
Settings: 1000 ppm applied to soil inoculated with 5000 eggs & J2s; cucumber seedlings; rated 30 days after application; 0-10 scale (Zeck 1971); untreated check up to 8
Experimental: Meloidogyne incognita Test:
The trial pots were filled with soil containing a mixture of sand:soil:cocopeat in a ratio of 1:1:1. To the soil of each pot 5 mL of a nematode suspension (Meloidogyne incognita, mix of 5000 eggs & J2s) was added. One hour later the respective test compound at the stated concentration was applied to each pot. 10 days old cucumber seedlings were transplanted into the pots one day after the application. The cucumber plants were allowed to grow at a temperature of 27° C. under greenhouse conditions. The evaluation of the gall rating was recorded 30 days after the application. The plants were carefully uprooted and the roots were thoroughly washed. The gall rating was done on a 0-10 scale as described by Zeck (1971) and shown below: • 0=no galls • 1=very few small galls • 2=numerous small galls • 3=numerous small galls of which some are grown together • 4=numerous small and some big galls • 5=25% of roots severely galled • 6=50% of roots severely galled • 7=75% of roots severely galled • 8=no healthy roots but plant is still green • 9=roots rotting and plant dying • 10=plant and roots dead

Compound	gall rating scale
Cc1c(C(=O)NS(=O)(=O)c2cc(C(F)(F)F)ccc2Br)nnn1-c1ccc(C#N)cc1Cl [Compound 458]	4
Cc1ccccc1S(=O)(=O)NC(=O)c1nnn(-c2ccc(C#N)cc2Cl)c1C [Compound 459]	4
Cc1cc(S(=O)(=O)NC(=O)c2nnn(-c3ccc(C#N)cc3Cl)c2C)c(C)cc1Cl [Compound 460]	4
Cc1c(C(=O)NS(=O)(=O)c2cc(Cl)ccc2F)nnn1-c1ccc(C#N)cc1Cl [Compound 497]	4
Cc1c(C(=O)NS(=O)(=O)c2ccc(Cl)c(F)c2)nnn1-c1ccc(C#N)cc1Cl [Compound 499]	4
Cc1c(Cl)cccc1S(=O)(=O)NC(=O)c1nnn(-c2ccc(C#N)cc2Cl)c1C [Compound 513]	4
Cc1ccc(F)cc1S(=O)(=O)NC(=O)c1nnn(-c2ccc(C#N)cc2Cl)c1C [Compound 516, 1-(2-chloro-4-cyanophenyl)-N-((5-fluoro-2-methylphenyl)sulfonyl)-5-methyl-1H-1,2,3-triazole-4-carboxamide]	4
Cc1ccc(C)c(S(=O)(=O)NC(=O)c2nnn(-c3ccc(C#N)cc3F)c2C(F)(F)F)c1 [Compound 536, 1-(4-cyano-2-fluorophenyl)-N-((2,5-dimethylphenyl)sulfonyl)-5-(trifluoromethyl)-1H-1,2,3-triazole-4-carboxamide]	4
COc1ccc(Cl)c(S(=O)(=O)NC(=O)c2nnn(-c3ccc(C#N)cc3F)c2C(F)(F)F)c1 [Compound 538, N-((2-chloro-5-methoxyphenyl)sulfonyl)-1-(4-cyano-2-fluorophenyl)-5-(trifluoromethyl)-1H-1,2,3-triazole-4-carboxamide]	4
N#Cc1ccc(-n2nnc(C(=O)NS(=O)(=O)c3ccccc3Cl)c2C(F)(F)F)c(F)c1 [Compound 563, N-((2-chlorophenyl)sulfonyl)-1-(4-cyano-2-fluorophenyl)-5-(trifluoromethyl)-1H-1,2,3-triazole-4-carboxamide]	4
COc1ccc(Cl)cc1S(=O)(=O)NC(=O)c1nnn(-c2ccc(OC(F)(F)F)cc2Cl)c1C [Compound 586]	4
COc1ccc(C)cc1S(=O)(=O)NC(=O)c1nnn(-c2ccc(OC(F)(F)F)cc2Cl)c1C [Compound 587]	4
Cc1ccc(F)cc1S(=O)(=O)NC(=O)c1nnn(-c2ccc(OC(F)(F)F)cc2Cl)c1C [Compound 588]	4
COc1ccc(C)cc1S(=O)(=O)NC(=O)c1nnn(-c2ccc(OC(F)(F)F)cc2Cl)c1C(F)(F)F [Compound 590]	4
Cc1c(Cl)cccc1S(=O)(=O)NC(=O)c1nnn(-c2ccc(OC(F)(F)F)cc2Cl)c1C(F)(F)F [Compound 596, N-((3-chloro-2-methylphenyl)sulfonyl)-1-(2-chloro-4-(trifluoromethoxy)phenyl)-5-(trifluoromethyl)-1H-1,2,3-triazole-4-carboxamide]	4
Cc1ccc(F)cc1S(=O)(=O)NC(=O)c1nnn(-c2ccc(OC(F)(F)F)cc2Cl)c1C(F)(F)F [Compound 597]	4
COc1ccc(Cl)cc1S(=O)(=O)NC(=O)c1nnn(-c2ccc(Cl)cc2Cl)c1C(F)(F)F [Compound 598]	4
COc1ccc(C)cc1S(=O)(=O)NC(=O)c1nnn(-c2ccc(Cl)cc2Cl)c1C(F)(F)F [Compound 599]	4
N#Cc1ccc(-n2nnc(C(=O)NS(=O)(=O)c3cc(Cl)c(F)cc3F)c2C(F)(F)F)c(F)c1 [Compound 610, N-((5-chloro-2,4-difluorophenyl)sulfonyl)-1-(4-cyano-2-fluorophenyl)-5-(trifluoromethyl)-1H-1,2,3-triazole-4-carboxamide]	4
COc1ccc(Cl)c(S(=O)(=O)NC(=O)c2nnn(-c3ccc(Cl)cc3F)c2C(F)(F)F)c1 [Compound 630]	4
O=C(NS(=O)(=O)c1cc(C(F)(F)F)ccc1Cl)c1nnn(-c2ccc(Cl)cc2F)c1C(F)(F)F [Compound 631]	4
O=C(NS(=O)(=O)c1ccccc1C(F)(F)F)c1nnn(-c2ccc(Cl)cc2F)c1C(F)(F)F [Compound 640]	4
Cc1c(C(=O)NS(=O)(=O)c2ccccc2C(F)(F)F)nnn1-c1cc(Cl)c(Cl)cc1Cl [Compound 657]	4

Compound	gall rating scale
COc1ccc(Cl)c(S(=O)(=O)NC(=O)c2nnn(-c3ccc(OC(F)F)cc3Cl)c2C)c1 [Compound 664]	4
Cc1c(C(=O)NS(=O)(=O)c2cc(C(F)(F)F)ccc2Cl)nnn1-c1ccc(OC(F)F)cc1Cl [Compound 665]	4
Cc1c(C(=O)NS(=O)(=O)c2cc(Cl)ccc2Cl)nnn1-c1ccc(OC(F)F)cc1Cl [Compound 666]	4
Cc1ccc(C)c(S(=O)(=O)NC(=O)c2nnn(-c3ccc(OC(F)F)cc3Cl)c2C)c1 [Compound 667]	4
Cc1c(C(=O)NS(=O)(=O)c2ccccc2F)nnn1-c1ccc(OC(F)F)cc1Cl [Compound 668]	4
Cc1c(C(=O)NS(=O)(=O)c2ccccc2C(F)(F)F)nnn1-c1ccc(OC(F)F)cc1Cl [Compound 669]	4
Cc1ccc(C)c(S(=O)(=O)NC(=O)c2nnn(-c3ccc(C(F)(F)F)cc3Cl)c2C)c1 [Compound 670]	4
Cc1c(C(=O)NS(=O)(=O)c2ccccc2Cl)nnn1-c1ccc(OC(F)F)cc1Cl [Compound 671]	4
Cc1c(C(=O)NS(=O)(=O)c2ccc(F)cc2F)nnn1-c1ccc(OC(F)F)cc1Cl [Compound 672]	4
Cc1c(C(=O)NS(=O)(=O)c2cc(F)cc(F)c2)nnn1-c1ccc(OC(F)F)cc1Cl [Compound 673]	4
Cc1c(C(=O)NS(=O)(=O)c2cc(F)ccc2F)nnn1-c1ccc(OC(F)F)cc1Cl [Compound 674]	4
Cc1c(C(=O)NS(=O)(=O)c2c(F)cc(F)cc2F)nnn1-c1ccc(OC(F)F)cc1Cl [Compound 675]	4
Cc1c(C(=O)NS(=O)(=O)c2cc(Cl)c(Cl)cc2Cl)nnn1-c1ccc(OC(F)F)cc1Cl [Compound 676]	4
Cc1c(C(=O)NS(=O)(=O)c2ccc(F)cc2F)nnn1-c1cc(Cl)c(Cl)cc1Cl [Compound 683]	4
Cc1c(C(=O)NS(=O)(=O)c2ccccc2C(F)(F)F)nnn1-c1ccc(F)cc1F [Compound 687]	4
Cc1c(C(=O)NS(=O)(=O)c2ccccc2Cl)nnn1-c1ccc(F)cc1F [Compound 689]	4
Cc1c(C(=O)NS(=O)(=O)c2cc(C(F)(F)F)ccc2C(F)(F)F)nnn1-c1ccc(F)cc1F [Compound 690]	4
Cc1c(C(=O)NS(=O)(=O)c2cc(Cl)ccc2F)nnn1-c1ccc(F)cc1F [Compound 691]	4
O=C(NS(=O)(=O)c1ccc(Cl)cc1Cl)c1nnn(-c2cc(Cl)c(Cl)cc2Cl)c1C(F)(F)F [Compound 709]	4
O=C(NS(=O)(=O)c1ccccc1C(F)(F)F)c1nnn(-c2ccc(F)cc2F)c1C(F)(F)F [Compound 736]	4
O=C(NS(=O)(=O)c1cc(C(F)(F)F)ccc1Cl)c1nnn(-c2ccc(F)cc2F)c1C(F)(F)F [Compound 774]	4
Cc1ccccc1S(=O)(=O)NC(=O)c1nnn(-c2ccc(F)cc2F)c1C(F)(F)F [Compound 776]	4
